Experimental findings from the METLIN SMRT retention time set (Domingo-Almenara et al. 2019) are described below.

The data set is described as follows: gradient 5% acetonitrile 3 min, to 50% in 2 min, to 85% in 15 min, held 3 min, 100 µL/min. Particulars: column: Zorbax Extend-C18 2.1 x 50 mm; eluents: water / acetonitrile, 0.1% formic acid. The gist of the method: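 Over 3 months, pure standards in mixtures of ~100 molecules were run by HPLC coupled to a quadrupole time-of-flight mass spectrometer in positive and negative ionization mode. The column was a Zorbax Extend-C18 (2.1 × 50 mm, 1.8 μm) at 100 μL/min, eluted with water and acetonitrile each holding 0.1% formic acid, with 40 μL dead and 900 μL dwell volumes. Retention time was determined from adduct peaks chosen by software and checked manually.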
With `O=C1[C@H]2CN(Cc3cc(Br)ccc3F)C[C@H]2C(=O)N1CCc1ccccc1`, the RP-LC retention time is 1030 s.
In the case of `CCN(Cc1ccc(Cl)cc1)Cc1cc(=O)n2ccccc2n1` it was 615 s; in that of `Cc1ccc(NC(=O)Nc2cnn(-c3ncncc3N3CCOCC3)c2)cc1C`, 674 s; in that of `CC1Oc2ccccc2C=C1/C=C1\Oc2cc(OC(=O)N(C)C)ccc2C1=O` (configuration not stated), 795 s.
Turning to `COc1ccc(NC(=O)N2CCC3(CC2)NC(=O)c2cc(Cl)ccc2N3C)cc1`, the RP-LC retention time is 753 s.
In the case of `CCC(C(=O)Nc1ccc(-c2nc(Cn3nc(C)cc3C)c(C)o2)cc1)c1ccccc1` (configuration not stated) it was 1050 s; in that of `O=C(Nc1cnc(N2CCCC2)nc1)c1ccc(F)c(Cl)c1`, 804 s; in that of `Cc1cc(C)cc(C(=O)N2CCC(COc3ccc(C(=O)NC(C)C)cc3)CC2)c1`, 953 s.
In the case of `CC(C)C(=O)Nc1ccc(-n2cnc(C(=O)NCc3ccccc3)c2)nc1` it was 738 s; in that of `O=C(Nc1ncc(Cc2ccc(Cl)cc2)s1)c1ccco1`, 869 s.
In the case of `Cc1ccc2c(c1)C1CC(C)(O2)N(c2cccc(C(=O)N3CCN(c4ccccn4)CC3)c2)C(=O)N1` (configuration not stated) it was 625 s; in that of `COCCCNc1onc(-c2ccc(Cl)cc2)c1C(=O)OC`, 1000 s; in that of `COCCNC(=O)C1CCCN(c2nn3cc(-c4ccc(F)cc4)nc3s2)C1` (configuration not stated), 756 s.
The compound `O=C(NCc1ccco1)N1CCOCC1` registered an RP-LC retention time of 568 s.
In the case of `CCn1cc(C(=O)N2CCCc3ccccc32)c2nn(-c3ccccc3)c(=O)c-2c1` it was 788 s; in that of `CCc1noc(-c2ccc(-n3ncc(C(=O)N4CCC(C)CC4)c3C)nc2)n1`, 1020 s.
In the case of `O=C(Nc1ccc2c(c1)OCCO2)C1CCCN(C(=O)c2ccc(Cl)cc2)C1` (configuration not stated) it was 815 s; in that of `CC(CNC(=O)C1CCN(S(=O)(=O)c2ccc3c(c2)NC(=O)CO3)CC1)c1ccccc1` (configuration not stated), 792 s; in that of `CCc1ccc(NC(=O)N2CCCC(C)(C(=O)NCc3cccc(OC)c3)C2)cc1` (configuration not stated), 968 s.
In the case of `CNC(=O)C1CCCN(c2nc3ncn(CC(=O)Nc4ccccc4OC)c(=O)c3s2)C1` (configuration not stated) it was 649 s; in that of `CCOC(=O)C1CCC(CNC(=O)Nc2ccc3nc(N4CCN(C)CC4)cc(C)c3c2)CC1` (configuration not stated), 584 s.
The compound `CN(C)CCNC(=O)Cn1c2ccccc2c2cnn(C)c(=O)c21` registered an RP-LC retention time of 576 s.
In the case of `COc1ccc(OC)c(NC(=O)N2CCC3(CC2)N=C(c2ccc(C)c(C)c2)C(=O)N3)c1` it was 896 s.
In the case of `CCCNC(=O)C1CCN(c2ccc(SCC(=O)Nc3cc(Cl)ccc3OC)nn2)CC1` it was 730 s; in that of `CCCNC(=O)C1CCCN(c2ccc(SCC(=O)Nc3c(C)cccc3Cl)nn2)C1` (configuration not stated), 655 s; in that of `COc1cccc(CNC(=O)C2(C)CCCN(C(=O)Nc3cccc(C)c3C)C2)c1` (configuration not stated), 855 s.
In the case of `Cc1ccccc1C(=O)Nc1nnc(SCc2nnc(-c3ccccc3)o2)s1` it was 917 s; in that of `COC(=O)c1c(C)[nH]c(C(=O)N2CCCC(C(=O)N3CCN(c4cc(C)ccc4C)CC3)C2)c1C` (configuration not stated), 961 s.
As to `O=C(NCC1CCCO1)c1nc(-c2ccc(N3CCCC3)cc2)no1` (configuration not stated), the RP-LC retention time worked out at 982 s.
In the case of `O=C(Nc1ccc(-c2nc(-c3ccc(F)cc3)no2)cc1)c1ccco1` it was 1100 s.
In the case of `O=S(=O)(c1cccc(C(F)(F)F)c1)N1CCN(c2cnn3cnnc3c2)CC1` it was 668 s; in that of `O=C1CCN(C(=O)C2CCN(C(=O)CN3CCCC3=O)CC2)CCCCCCN1`, 572 s; in that of `CCOc1ccccc1NC(=O)c1c(O)c2cccnc2n(-c2ccccc2)c1=O`, 1330 s.
In the case of `Cc1noc(C2(NC(=O)c3ccc(C(C)(C)C)cc3)CCCCC2)n1` it was 1090 s; in that of `O=C(NCc1ccc(F)cc1F)C1CCN(c2nnc(-c3ccccc3)o2)CC1`, 816 s.
In turn, `CCOC(=O)c1c(C)[nH]c(C(=O)N2CCCC(C(=O)NCc3ccc(F)cc3)C2)c1C` (configuration not stated) yielded an RP-LC retention time of 803 s.
Regarding `Cc1cccc(Nc2c(-c3ccccc3)nc3cnccn23)c1C`, the RP-LC retention time was found to be 981 s.
Compound `Cc1oc2c(c1C(=O)NCC1CCN(Cc3ccc(Cl)cc3)CC1)C1=NCCN1C=N2` showed an RP-LC retention time of 567 s.
In the case of `COc1ccc(Cl)cc1NC(=O)Cn1c(=O)n(-c2ccc(F)cc2)c(=O)c2c1cc(C)n2C` it was 938 s; in that of `Cc1ccc(-c2noc(Cn3ncn4nc(-c5cc(C)ccc5C)cc4c3=O)n2)cc1`, 878 s.
In the case of `CCC(C)NC(=O)N1CC(c2nc(CCOCc3ccccc3)no2)C1` (configuration not stated) it was 812 s; in that of `Cc1cc2c(cc1C(=O)NCc1cccs1)OCCCO2`, 804 s.
In the case of `CCn1c(CCC(=O)NCc2ccc(Cl)cc2)nc2ccccc2c1=O` it was 812 s.
The compound `CCNC(=O)C1CCCN(c2nc3ncn(CC(=O)Nc4c(C)cc(C)cc4C)c(=O)c3s2)C1` (configuration not stated) displayed an RP-LC retention time of 715 s.
For the compound `Cc1ccc(S(=O)(=O)N2CC(=O)N(c3ccc(F)cc3)C(C)(C(=O)NCc3ccccc3)C2)cc1` (configuration not stated), the RP-LC retention time worked out at 968 s.
In the case of `CC1=NS(=O)(=O)N(Cc2ccccc2)C=C1C(=O)OCc1ccc(C(F)(F)F)cc1` it was 1190 s; in that of `Cn1c(CNC(=O)C2CCC2)nc2c1CN(C(=O)Nc1ccc(F)cc1)CC2`, 603 s.
Consider `O=C(NCc1ccco1)N1CCN(c2nc3ccccc3n(Cc3ccccc3)c2=O)CC1`, for which the RP-LC retention time was 967 s.
In the case of `Cc1ccc(Cl)cc1NS(=O)(=O)c1c(C)sc(C)c1-c1cc(C(F)(F)F)on1` it was 1220 s.
In the case of `CCC1(C(=O)Nc2ccc(OC)cc2)CCCCC(=O)N1` (configuration not stated) it was 666 s.
In the case of `O=C(c1ccco1)N1CCN(C(=O)c2nnn3c2COC(c2ccc(Cl)cc2)C3)CC1` (configuration not stated) it was 838 s.
`O=C(NCc1ccccc1F)c1sc2ncccc2c1-n1cccc1` showed an RP-LC retention time of 961 s.
`c1ccc(-c2noc(N3CCCCC3)n2)cc1` showed an RP-LC retention time of 1070 s.
For the compound `CC1=C(c2ccc(C)c(C)c2)S(=O)(=O)N=C1N1CCC(NC(=O)CCC(C)C)CC1`, the RP-LC retention time turned out to be 962 s.
In the case of `Cc1cc(=O)oc2c(C)c(OCC(O)CN3CCN(c4ccccn4)CC3)ccc12` (configuration not stated) it was 572 s.
In the case of `CCn1ccc(C(=O)Nc2ccc(OCc3nnc(-c4ccc(Cl)cc4)o3)cc2)n1` it was 1010 s; in that of `Fc1ccc(-c2noc(Cc3nnc(-c4cc(F)cc(F)c4)o3)n2)cc1`, 1030 s.
In the case of `COc1ccc(NC(=O)c2cn(-c3cc(N(C)C)ncn3)cn2)cc1F` it was 782 s.
Turning to `COc1cc(-c2noc(Cc3nnc(-c4cc(F)cc(F)c4)o3)n2)cc(OC)c1OC`, the RP-LC retention time stood at 968 s.
In the case of `Cc1nc2c(sc3nc(-c4ccccc4)ccc32)c(=O)n1CC(=O)Nc1cccc(Cl)c1` it was 1120 s; in that of `O=C(CSCc1ccccc1)NCC1CCN(C(=O)Nc2ccc(F)cc2)CC1`, 770 s.
In the case of `O=C(NCc1nc2ccccc2c(=O)n1-c1ccc(F)cc1)Nc1ccc(Cl)c(C(F)(F)F)c1` it was 1040 s.
In the case of `O=C(c1ccc(C(F)(F)F)cc1)N1CCc2nc(-c3ccc(Cl)cc3)ncc2C1` it was 1170 s; in that of `CCc1nc2cc(-c3noc(-c4ccc(OC)cc4OC)n3)ccc2o1`, 1080 s.
In the case of `COC(=O)c1cccc(NC(=O)c2sc(-c3cn(C)c4ncccc34)nc2C)c1`, the RP-LC retention time came to 927 s.
In the case of `Cc1ccc(S(=O)(=O)N2CCC(n3cnnc3C3CC3)CC2)cc1Cl` it was 809 s; in that of `Cc1nc(-c2noc(-c3ccccc3)n2)cn1CC(=O)NCc1cccc(Cl)c1`, 866 s.
In the case of `CCn1cnc(S(=O)(=O)N2CCCC(C(=O)Nc3cc(C)cc(C)c3)C2)c1` (configuration not stated) it was 803 s; in that of `Cc1cc2nn(CC(=O)Nc3ccc(F)cc3)c(=O)n2c(N2CCCC2)n1`, 739 s.
In the case of `CCOC(=O)c1ccc(NC(=O)N(Cc2cccs2)C2CCN(CC)CC2)cc1` it was 670 s.
Regarding `CCc1nc(-c2cccc(-c3noc(CNS(=O)(=O)c4ccccc4)n3)c2)cs1`, the RP-LC retention time came to 1070 s.
In the case of `CCCS(=O)(=O)N1CCOc2ccc(NC(=O)C3CC3)cc2C1` it was 754 s; in that of `COc1cc(NC(=O)N2CCC(n3c(CC(C)C)nc4cccnc43)CC2)cc(OC)c1OC`, 662 s; in that of `Cc1ccc(C)c(-c2csc(NC(=O)COc3ccccc3)n2)c1`, 1150 s.
In the case of `CCn1cnc2ccc(-c3noc(COc4ccc(F)cc4)n3)cc21` it was 754 s; in that of `O=C(NCc1ccc(F)cc1)c1ccc(-c2cccs2)nc1`, 869 s.
In the case of `CCOC(=O)C1=C(C)NC(=O)NC1c1ccc(-c2cccc([N+](=O)[O-])c2)o1` (configuration not stated) it was 761 s.
